In series [1] the target is T1, glucocorticoid receptor (GR) (Homo sapiens, UniProt P04150).
T1 construct: the UAS-driven beta-lactamase is the reporter
T1 sequence (P04150 524-777 limits assumed): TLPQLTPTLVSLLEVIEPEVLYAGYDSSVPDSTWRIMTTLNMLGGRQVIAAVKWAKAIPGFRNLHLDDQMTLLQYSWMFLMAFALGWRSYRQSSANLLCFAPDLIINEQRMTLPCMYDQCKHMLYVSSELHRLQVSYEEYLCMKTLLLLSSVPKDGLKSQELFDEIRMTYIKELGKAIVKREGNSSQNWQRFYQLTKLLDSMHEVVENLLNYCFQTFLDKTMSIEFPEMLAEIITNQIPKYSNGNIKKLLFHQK
As to the kind of experiment: SelectScreen cell-based GR antagonist assay (UAS-bla HEK 293T, beta-lactamase reporter, dexamethasone as agonist). The procedure:
An antagonist assay for GR was performed by SelectScreen® Cell-Based Nuclear Receptor Profiling Service of Life Technologies. […] Detection method is based on a beta-lactamase reporter gene (bla) combined with a FRET-enabled substrate. The data obtained in these assays was modelled to a sigmoidal dose response curve.

Series [2] is described as follows: Observation of precipitation and aggregates during nanoparticle preparation. The settings on record: after addition of the xanthophyll to the albumin solution.
Method: To prepare bovine serum albumin (BSA)—astaxanthin nanoparticles, albumin (20 mg, 5 mg or 1 mg depending on the protein:carotenoid ratio) was dissolved in 1 mL deionized water and 1 mg of astaxanthin was dissolved in 0.25 mL THF. The astaxanthin solution was slowly added to the BSA solution under stirring and nitrogen atmosphere. When the addition of carotene was completed the solution was stirred at room temperature for 10 additional minutes. The organic solvent (THF) in the mixed solution was slowly removed by speed vacuum at 25° C. Distillation was completed when the total solution volume was reduced by ⅔. Finally, the nanoparticle solutions were filtered through a 0.22 μm PES membrane filter and immediately stored in the dark at 4° C.
Setting [3] is: at 10 μM, against dexamethasone.

The source of these data is patent US11234941B2, “Oil-free carotenoid composition” (GAT Therapeutics S.L., priority 2017, dated 2022).

`CC(=C/C=C/C(C)=C/C=C/C=C(C)/C=C/C=C(\C)C=C=C1C(C)(C)C[C@H](O)C[C@@]1(C)O)/C=C/[C@@]12O[C@]1(C)C[C@@H](O)CC2(C)C` [Neoxanthin, neoxanthin]: the GR inhibition entry in series [1] (setting [3]) was “above 85%”.

Regarding `CC1=C(/C=C/C(C)=C/C=C/C(C)=C/C=C/C=C(C)/C=C/C=C(C)/C=C/C2=C(C)C(=O)[C@@H](O)CC2(C)C)C(C)(C)C[C@H](O)C1=O` [astaxanthin, reference compound], in series [1] (against dexamethasone), the “antagonist effect on GR” value is on record as “neither compound exercised an antagonist effect on GR”.

Consider `CC1=C(/C=C/C(C)=C/C=C/C(C)=C/C=C/C=C(C)/C=C/C=C(C)/C=C/C2=C(C)CCCC2(C)C)C(C)(C)CCC1` [beta-carotene, reference compound], for which the “antagonist effect on GR” value in series [1] (against dexamethasone) is “neither compound exercised an antagonist effect on GR”.

The molecule `CC(=O)O[C@H]1CC(C)(C)C(=C=C/C(C)=C/C=C/C(C)=C/C=C/C=C(C)/C=C/C=C(\C)C(=O)/C=C2/C(C)(C)C[C@H](O)C[C@@]2(C)O)[C@](C)(O)C1` [isofucoxanthin] registered a GR inhibition in series [1] (setting [3]) of 80%.

The term inhibition denotes the share of the control response that was lost under treatment. The molecule `CC1=C[C@H](O)CC(C)(C)[C@H]1/C=C/C(C)=C/C=C/C(C)=C/C=C/C=C(C)/C=C/C=C(C)/C=C/C1=C(C)C[C@@H](O)CC1(C)C` [lutein] displayed an inhibition at 10 µM in series [1] (HEK-293T, at 10 μM, against dexamethasone) of 80%.

As for fucoxanthin, the “formation of aggregates with poor solubility during nanoparticle preparation” value in series [2] is reported as “not observed”. For the same molecule, the “concentration from which it acts as GR antagonist” value in series [1] (against the agonist dexamethasone) came out at 30 nM. Also, the GR inhibition in series [1] (setting [3]) was found to be 50%.
